Laboratory results reported in US20170290915A1, “METHODS FOR DELIVERING AN ANTI-CANCER AGENT TO A TUMOR” (priority 2010, published 2017).
Values joined by “and” are separate entries in the source; they are usually repeats but may differ in a detail not shown here. Identical values can stand only once.

Legend:
[1] = biological target: T1, αvβ3 integrins (Homo sapiens, UniProt P05106+P06756); assay: Competitive inhibition of RGDfK-GNR binding with echistatin; format: cell-based; details: echistatin 50 nM co-incubation; HUVECs; 4° C. for 2 hours; binding buffer
T1 construct: endogenous in cells; host or cells: HUVEC
Experimental: Confirmation of RGDfK-GNR specificity to αvβ3 integrins was performed by competitive inhibition of binding with echistatin. In brief, HUVEC cells were grown to 50% confluency on fibronectin coated cover slips. The media was then removed and replaced with cold binding buffer (20 mmol/L Tris, pH 7.4, 150 mmol/L NaCl, 2 mmol/L CaCl2, 1 mmol/L MgCl2, 1 mmol/L MnCl2, 0.1% bovine serum albumin) containing RGDfK-GNRs (10 μg/ml) and HUVECs were co-incubated at 4° C. for 2 hours with or without 50 nM echistatin (Sigma-Aldrich). Cells were then washed three times with cold binding buffer, mounted to a slide and imaged by high-resolution dark field microscopy.

[2] = Evans blue dye (EBD) delivery to tumor, thermal enhancement ratio (TER); format: in vivo, mice
Experimental: Mouse sarcoma S-180 cells were propagated by intraperitoneal injection (5×10^6 S-180 cells in 1 ml phosphate buffered saline (PBS)) in female CD-1 mice (4-6 weeks old) and allowed to grow until 15% weight gain was observed. Animals were then euthanized by CO2 gas inhalation and the cells were harvested from the abdominal cavity. The cells were then washed to remove blood, diluted and subcutaneously injected into each flank of the animal (2×10^6 cells/flank in 200 μl PBS) while anesthetized with isofluorane. Tumors were then allowed to grow until average tumor volume reached 50-100 mm^3 (usually 7-10 days).
The animals were separated randomly into groups. Half received 200 μl of GNRs (9.6 mg/kg, OD=120) and the other half saline by intravenous injection through the tail vein. After 24 hours, enough time for the GNRs to accumulate in the tumor at 1.22% injected dosed based on previous experiments and other reports in the literature (Dickerson et al., 2008), the animals were anesthetized and the areas around the tumors were shaved and swabbed with 50% propylene glycol to enhance laser penetration depth. After 20 minutes EBD (10 mg/kg in 200 μl saline) was injected intravenously and a 33 gauge needle thermocouple (Omega #HYPO-33-1-T-G-60-SMPW-M) was inserted into the center of the tumor to monitor tumor temperatures. After roughly 10 seconds that temperature data was collected, an 808 nm fiber coupled laser diode (Oclaro #BMU6-808-02-R01) with collimating lens (Thorlabs #F810SMA-780, spot size=7 mm) was directed over the right tumor and radiated. Two different laser powers were used in this study (1.6 and 1.2 W/cm^2) such that one group received severe and the other moderate tumor hyperthermia. After 10 minutes of radiation, the laser was turned off and tumors were allowed to cool for two minutes before removal of the temperature probe.
After the animals were allowed to rest for 5 hours, enough time for the EBD to be cleared from the blood, the animals were sacrificed by CO2 inhalation. Both tumors were collected, weighed and the EBD was extracted in 1.5 ml of formamide for 48 hrs at 60° C. The EBD content was then measured spectrophotometrically at 620 nm and divided by the weight of the tumor. The extravasation of EBD was then calculated as a ratio of the right (treated) to left (untreated) tumor and expressed as a thermal enhancement ratio (TER).

Row | Molecule | Inhibition of RGDfK-GNR binding to the cell's surface [1] | TER (EBD in treated/untreated tumor) ([2]; Laser alone (no GNRs), 1.2 W/cm^2) | TER (EBD in treated/untreated tumor) ([2]; Laser alone (no GNRs), 1.6 W/cm^2) | TER (EBD in treated/untreated tumor) ([2]; PPTT (GNRs + laser), 1.2 W/cm^2) | TER (EBD in treated/untreated tumor) ([2]; PPTT (GNRs + laser), 1.6 W/cm^2, EBD 10 mg/kg i.v., 5 hours) | TER ([2]; laser treatment without the presence of GNRs (power not specified))
1 | echistatin | almost complete inhibition | – | – | – | – | –
2 | Cc1cc(-c2ccc(/N=N/c3ccc4c(S(=O)(=O)[O-])cc(S(=O)(=O)[O-])c(N)c4c3O)c(C)c2)ccc1/N=N/c1ccc2c(S(=O)(=O)[O-])cc(S(=O)(=O)[O-])c(N)c2c1O.[Na+].[Na+].[Na+].[Na+] [EBD, Evans blue dye] | – | 0.94 ± 0.25 | 1.05 ± 0.15 | 1.68 and 1.68 ± 0.65 | 1.82 and 1.82 ± 0.40 | around 1.0
